Experimental data taken from patent publication EP4696688A1, “BENZO-FUSED RING COMPOUND INHIBITOR, AND PREPARATION METHOD THEREFOR AND USE THEREOF” (Shanghai Hansoh Biomedical Co., Ltd., priority 2023, dated 2024).

Experiments:
human CYP11B2 = target: T1, human CYP11B2 (Homo sapiens, UniProt P19099); assay: G-402 cell enzyme experiment, CYP11B2 (aldosterone product, HTRF); assay type: cell-based; conditions: G-402 cells stably expressing human CYP11B2, 1 µM 11-deoxycorticosterone, 16 h
T1 construct: The main elements of an expression plasmid include ORF of human CYP11B1 or human CYP11B2; expressed in transfected cells
T1 sequence (P19099 25-503): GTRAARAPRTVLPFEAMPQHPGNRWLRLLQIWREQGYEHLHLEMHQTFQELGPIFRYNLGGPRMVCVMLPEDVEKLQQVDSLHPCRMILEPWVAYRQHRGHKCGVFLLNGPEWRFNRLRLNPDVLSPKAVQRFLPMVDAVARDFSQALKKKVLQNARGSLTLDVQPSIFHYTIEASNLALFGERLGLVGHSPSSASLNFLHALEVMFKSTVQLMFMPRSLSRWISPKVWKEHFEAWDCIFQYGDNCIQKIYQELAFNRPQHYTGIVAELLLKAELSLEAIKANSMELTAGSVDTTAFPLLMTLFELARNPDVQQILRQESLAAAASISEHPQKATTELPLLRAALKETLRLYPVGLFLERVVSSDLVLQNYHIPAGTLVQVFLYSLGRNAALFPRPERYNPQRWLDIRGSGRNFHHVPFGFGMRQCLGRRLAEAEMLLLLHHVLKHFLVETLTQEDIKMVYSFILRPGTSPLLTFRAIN
How it was run: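 Stably transfected G-402 cells in DMEM/F12 with 2.5% charcoal-treated FBS, incubated 16 h with 1 µM 11-deoxycorticosterone (CYP11B2, aldosterone product) or 1 µM 11-deoxycortisol (CYP11B1, cortisol product). Supernatant product measured by HTRF; EC50 from 4-parameter MMF sigmoidal fit, minimum defined by empty-plasmid cells.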

human CYP11B1 = target: T2, human CYP11B1 (Homo sapiens, UniProt P15538); assay: G-402 cell enzyme experiment, CYP11B1 (cortisol product, HTRF), selectivity versus CYP11B2; assay type: cell-based; conditions: human selective factor: ratio of CYP11B1 EC50 to CYP11B2 EC50; G-402 cells
T2 construct: The main elements of an expression plasmid include ORF of human CYP11B1 or human CYP11B2; expressed in transfected cells
T2 sequence (P15538 25-503): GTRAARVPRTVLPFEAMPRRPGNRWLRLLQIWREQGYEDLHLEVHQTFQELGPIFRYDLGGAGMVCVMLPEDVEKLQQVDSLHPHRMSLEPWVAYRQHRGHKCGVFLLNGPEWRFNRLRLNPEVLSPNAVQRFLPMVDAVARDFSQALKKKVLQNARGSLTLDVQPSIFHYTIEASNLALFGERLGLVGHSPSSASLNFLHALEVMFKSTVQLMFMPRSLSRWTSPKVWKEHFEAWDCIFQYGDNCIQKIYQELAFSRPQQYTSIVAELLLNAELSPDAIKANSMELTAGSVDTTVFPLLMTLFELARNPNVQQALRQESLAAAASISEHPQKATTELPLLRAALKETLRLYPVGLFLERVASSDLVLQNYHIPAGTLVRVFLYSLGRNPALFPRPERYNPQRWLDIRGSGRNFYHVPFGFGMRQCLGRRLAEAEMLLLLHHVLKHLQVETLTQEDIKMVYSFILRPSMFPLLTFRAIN

[1] = Pharmacokinetic determination in rats; assay type: in vivo; conditions: rat, male SD rats, plasma, oral administration (PO) 5 mg/kg
Method: SD rats were used as test animals to study the pharmacokinetic behavior of the compounds of the present invention in rats (plasma) after oral administration.
3 SD rats per group, male.
Formulation of drug for oral administration: 0.5% CMC-Na (1% Tween 80)
5 g of sodium carboxymethyl cellulose (CMC-Na, viscosity: 800-1200 Cps) was weighed and dissolved in 1000 mL of purified water, and 10 g of Tween 80 was added. These materials were uniformly mixed to form a clear solution.
The example compounds were weighed and dissolved in the solution and the mixture was shaken well and ultrasonicated for 15 min to obtain a colorless clear solution with a concentration of 0.5 mg/mL. Formulation of drug for intravenous administration: 5% DMSO + 10% Solutol HS15 + 85% PBS
After overnight fasting, 3 male SD rats per group were administered orally (PO) at a dose of 5 mg/kg with an administration volume of 10 mL/kg. […]
0.2 mL of blood was collected from the jugular vein of the experimental animals before administration and at 0.25 h, 0.5 h, 1.0 h, 2.0 h, 4.0 h, 6.0 h, 8.0 h, and 24.0 h after administration and placed in an EDTA-2K test tube, and the test tube was centrifuged at 8000 rpm for 6 min at 4°C to separate the plasma, which was stored at -80°C; and the animals were fed 4 h after administration.
3 Experimental results: The final determination results were obtained by using LCMS/MS method.

- EC50 (human CYP11B2): 26 nM
- hsF (human CYP11B1): 1292x
- AUC(0-inf) [1]: 24700 ng·h/mL
- AUC(0-t) [1]: 24700 ng·h/mL
- Cmax [1]: 2700 ng/mL
- Tmax [1]: 4 h
- half-life [1]: 1.8 h
- MRT inf ([1]; read-out: MRT0-∞): 5.6 h
SMILES: Cn1cc(C(=O)N2CCC3(CC2)CN(c2cncc(-c4ccc5c(c4)sc(=O)n5C)c2)C3)cn1 [Example 103, 3-methyl-6-(5-(7-(1-methyl-1H-pyrazole-4-carbonyl)-2,7-diazaspiro[3.5]nonan-2-yl)pyridin-3-yl)benzo[d]thiazol-2(3H)-one]
